Source: ChEMBL document CHEMBL4665653, “VU6005806/AZN-00016130, an advanced M positive allosteric modulator (PAM) profiled as a potential preclinical development candidate” (Bioorg Med Chem Lett, 2019)
Values after ≈ are worked out from the molar mass of the structure shown.

Key:
[1] = Volume of distribution at steady state in dog; assay type: ADME, Canis lupus familiaris; conditions: in vivo, read-out: Vdss
[2] = Hepatic clearance in human; assay type: ADME
[3] = target: Endothelin-1 receptor (Homo sapiens) (UniProt P25101); assay: Displacement of [125I]endothelin-1 from recombinant full length human recombinant ETA receptor expressed in CHO-S cells assessed as residual binding level for radioligand at 10 uM measured after 120 mins by radiometric scintillation analysis relative to control; assay type: cell-based
[4] = target: Platelet-activating factor receptor (Homo sapiens) (UniProt P25105); assay: Displacement of [3H]-PAF from human PAF receptor assessed as residual binding level for radioligand at 10 uM incubated for 180 mins by scintillation counting analysis relative to control
Sequence of Platelet-activating factor receptor (Homo sapiens) (P25105 whole entry): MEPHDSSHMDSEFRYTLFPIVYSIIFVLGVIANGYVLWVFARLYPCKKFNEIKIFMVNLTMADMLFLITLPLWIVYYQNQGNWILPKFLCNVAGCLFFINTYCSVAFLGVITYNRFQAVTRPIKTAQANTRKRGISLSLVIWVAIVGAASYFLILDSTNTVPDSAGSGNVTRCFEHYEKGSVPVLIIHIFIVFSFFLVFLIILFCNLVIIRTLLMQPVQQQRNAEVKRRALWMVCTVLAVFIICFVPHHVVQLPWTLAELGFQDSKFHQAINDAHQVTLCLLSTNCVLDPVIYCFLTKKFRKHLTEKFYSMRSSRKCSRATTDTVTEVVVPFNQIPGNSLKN

[5] = target: T1, Muscarinic acetylcholine receptor M4 (Homo sapiens) (UniProt P08173); assay: Positive allosteric modulation of human M4 receptor/Gqi5 in presence of EC20 acetylcholine by calcium mobilization assay relative to acetylcholine; assay type: functional; conditions: filed as positive allosteric modulator
T1 sequence (whole entry): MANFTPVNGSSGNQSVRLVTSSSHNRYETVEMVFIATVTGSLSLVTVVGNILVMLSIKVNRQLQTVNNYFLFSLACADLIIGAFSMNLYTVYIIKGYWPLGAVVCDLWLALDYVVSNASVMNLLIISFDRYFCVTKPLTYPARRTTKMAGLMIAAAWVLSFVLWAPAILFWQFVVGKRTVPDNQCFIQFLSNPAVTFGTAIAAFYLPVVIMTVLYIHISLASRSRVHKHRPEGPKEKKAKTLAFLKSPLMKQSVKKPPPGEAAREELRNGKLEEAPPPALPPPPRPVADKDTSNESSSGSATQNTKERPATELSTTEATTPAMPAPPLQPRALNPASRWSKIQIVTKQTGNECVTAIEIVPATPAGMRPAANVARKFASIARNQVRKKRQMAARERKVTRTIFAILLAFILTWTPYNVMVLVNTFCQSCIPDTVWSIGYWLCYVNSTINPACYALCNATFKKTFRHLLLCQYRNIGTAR

[6] = system: Rattus norvegicus; assay: Reversal of amphetamine-induced hyperlocomotion in rat at 3 mg/kg, po relative to control; assay type: functional
[7] = target: Endothelin receptor type B (Homo sapiens) (UniProt P24530); assay: Displacement of [125I]endothelin-1 from recombinant full length human recombinant ETB receptor expressed in CHO-K1 cells assessed as residual binding level for radioligand at 10 uM measured after 120 mins by radiometric scintillation analysis relative to control; assay type: cell-based
Sequence of Endothelin receptor type B (Homo sapiens) (P24530 whole entry): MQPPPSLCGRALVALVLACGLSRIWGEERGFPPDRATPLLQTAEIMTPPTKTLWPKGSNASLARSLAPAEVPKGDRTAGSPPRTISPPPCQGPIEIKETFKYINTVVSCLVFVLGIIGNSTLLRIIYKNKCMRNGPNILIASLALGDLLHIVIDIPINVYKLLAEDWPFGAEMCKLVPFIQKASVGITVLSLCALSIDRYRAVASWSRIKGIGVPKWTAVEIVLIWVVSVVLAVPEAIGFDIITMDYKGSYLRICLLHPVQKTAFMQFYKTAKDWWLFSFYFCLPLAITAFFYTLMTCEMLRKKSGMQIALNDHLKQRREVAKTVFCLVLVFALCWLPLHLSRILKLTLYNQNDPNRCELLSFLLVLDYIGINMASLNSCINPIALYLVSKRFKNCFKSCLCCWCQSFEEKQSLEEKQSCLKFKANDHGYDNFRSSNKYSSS

[8] = target: Histamine H3 receptor (Homo sapiens) (UniProt Q9Y5N1); assay: Displacement of [3H]-N-alpha-Methylhistamine from full length recombinant human recombinant Histamine H3 receptor expressed in CHO-K1 cells assessed as residual binding level for radioligand at 10 uM incubated for 120 mins by scintillation counting analysis relative to control; assay type: cell-based
[9] = system: Rattus norvegicus; assay: Reversal of amphetamine-induced hyperlocomotion in po dosed rat assessed as minimum effective dose; assay type: functional; conditions: read-out: MED
[10] = target: L-type calcium channel Cav1.2, benzothiazepine binding site (Rattus norvegicus, UniProt P22002); assay: Displacement of [3H]-Diltiazem from L-type calcium channel Cav1.2 benzothiazepine binding site in Wistar rat brain membrane assessed as residual binding level for radioligand at 10 uM incubated for 180 mins by radiometric scintillation analysis relative to control; assay type: cell membranes; conditions: probe [3H]-Diltiazem, read-out: Activity
Sequence of L-type calcium channel Cav1.2, benzothiazepine binding site (P22002 whole entry): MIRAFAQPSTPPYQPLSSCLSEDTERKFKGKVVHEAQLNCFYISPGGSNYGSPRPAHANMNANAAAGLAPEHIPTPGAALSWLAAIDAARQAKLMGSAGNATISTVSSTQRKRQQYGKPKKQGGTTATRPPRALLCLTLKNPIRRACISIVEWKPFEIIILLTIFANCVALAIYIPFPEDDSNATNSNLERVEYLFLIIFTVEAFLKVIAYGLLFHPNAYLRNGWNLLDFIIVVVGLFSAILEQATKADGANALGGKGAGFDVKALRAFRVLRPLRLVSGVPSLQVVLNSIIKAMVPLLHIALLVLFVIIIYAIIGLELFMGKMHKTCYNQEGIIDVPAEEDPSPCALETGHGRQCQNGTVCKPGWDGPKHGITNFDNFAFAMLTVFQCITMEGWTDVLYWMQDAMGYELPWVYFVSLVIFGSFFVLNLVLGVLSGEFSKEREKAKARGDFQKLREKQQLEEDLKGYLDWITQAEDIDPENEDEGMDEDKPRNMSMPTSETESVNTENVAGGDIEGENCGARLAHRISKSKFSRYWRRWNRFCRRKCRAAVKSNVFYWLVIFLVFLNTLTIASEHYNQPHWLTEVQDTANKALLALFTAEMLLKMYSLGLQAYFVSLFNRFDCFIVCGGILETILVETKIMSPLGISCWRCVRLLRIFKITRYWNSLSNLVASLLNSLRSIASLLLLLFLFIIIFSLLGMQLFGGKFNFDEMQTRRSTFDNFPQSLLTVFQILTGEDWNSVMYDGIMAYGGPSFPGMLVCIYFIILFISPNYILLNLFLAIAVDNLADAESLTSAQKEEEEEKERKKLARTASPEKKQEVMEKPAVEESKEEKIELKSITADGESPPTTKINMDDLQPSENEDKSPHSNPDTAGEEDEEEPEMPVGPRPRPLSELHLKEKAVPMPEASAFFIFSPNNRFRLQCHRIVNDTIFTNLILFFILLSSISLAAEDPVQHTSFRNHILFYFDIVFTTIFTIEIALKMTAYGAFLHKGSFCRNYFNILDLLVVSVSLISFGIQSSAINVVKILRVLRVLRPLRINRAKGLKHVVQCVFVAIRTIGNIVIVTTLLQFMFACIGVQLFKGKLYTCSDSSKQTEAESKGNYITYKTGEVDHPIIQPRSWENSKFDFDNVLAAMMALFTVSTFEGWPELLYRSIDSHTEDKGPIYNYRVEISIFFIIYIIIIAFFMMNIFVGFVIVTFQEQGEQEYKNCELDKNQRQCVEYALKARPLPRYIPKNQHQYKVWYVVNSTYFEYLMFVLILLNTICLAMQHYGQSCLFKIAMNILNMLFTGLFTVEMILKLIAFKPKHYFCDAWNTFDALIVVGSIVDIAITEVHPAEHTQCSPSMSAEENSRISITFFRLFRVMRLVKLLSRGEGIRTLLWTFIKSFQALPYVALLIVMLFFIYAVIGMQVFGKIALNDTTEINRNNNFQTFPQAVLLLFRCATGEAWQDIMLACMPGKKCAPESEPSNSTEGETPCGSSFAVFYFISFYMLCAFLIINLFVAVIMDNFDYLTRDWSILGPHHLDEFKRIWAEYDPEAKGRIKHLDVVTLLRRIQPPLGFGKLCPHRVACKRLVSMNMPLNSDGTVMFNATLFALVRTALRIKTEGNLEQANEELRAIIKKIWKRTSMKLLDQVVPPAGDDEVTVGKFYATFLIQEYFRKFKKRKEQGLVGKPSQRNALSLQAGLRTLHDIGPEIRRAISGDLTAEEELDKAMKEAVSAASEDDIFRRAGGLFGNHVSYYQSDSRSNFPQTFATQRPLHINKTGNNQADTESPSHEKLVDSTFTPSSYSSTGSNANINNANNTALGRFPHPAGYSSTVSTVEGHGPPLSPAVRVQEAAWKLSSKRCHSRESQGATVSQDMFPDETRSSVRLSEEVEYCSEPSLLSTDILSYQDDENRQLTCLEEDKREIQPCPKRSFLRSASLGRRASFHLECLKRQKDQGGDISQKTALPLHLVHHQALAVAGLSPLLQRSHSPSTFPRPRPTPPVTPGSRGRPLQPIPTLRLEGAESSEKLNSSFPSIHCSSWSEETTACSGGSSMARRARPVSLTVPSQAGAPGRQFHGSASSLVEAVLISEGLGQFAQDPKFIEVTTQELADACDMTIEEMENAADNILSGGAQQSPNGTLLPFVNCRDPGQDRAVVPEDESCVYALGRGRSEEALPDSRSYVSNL

[11] = species: Rattus norvegicus; assay: Displacement of [125I]-Triiodothyronine from thyroid hormone receptors in Sprague-Dawley rat liver assessed as residual binding level for radioligand at 10 uM incubated for 1080 mins by radiometric scintillation analysis relative to control; assay type: tissue-based
[12] = species: Rattus norvegicus; assay: Displacement of [3H]-TCP from NMDA glutamate receptor phencyclidine binding site in Wistar rat brain assessed as residual binding level for radioligand at 10 uM incubated for 45 mins by scintillation counting analysis relative to control; assay type: tissue-based
[13] = target: Glutamate NMDA receptor (Rattus norvegicus) (UniProt P35439+Q00959+Q00960+Q00961+Q62645+Q8VHN2+Q9R1M7); assay: Displacement of [3H]MDL 105,519 from glutamate NMDA receptor glycine binding site in Wistar rat cerebral cortical membranes assessed as residual binding level for radioligand at 10 uM incubated for 30 mins by radiometric scintillation analysis relative to control; assay type: tissue-based; conditions: Cerebral cortex
[14] = system: Mus musculus; assay: Reversal of amphetamine-induced hyperlocomotion in po dosed C57BL/6 mouse assessed as minimum effective dose pretreated for 30 mins after habituation in chamber followed by amphetamine challenge and measured after 1 hr; assay type: functional; conditions: C57BL/6, po, 0.5 h, read-out: MED
[15] = target: D(4) dopamine receptor (Homo sapiens) (UniProt P21917); assay: Displacement of [3H]spiperone from full length recombinant human D4.4 receptor expressed in CHO cells assessed as residual binding level for radioligand at 10 uM incubated for 120 mins by radiometric scintillation analysis relative to control; assay type: cell-based
[16] = target: Mu-type opioid receptor (Homo sapiens) (UniProt P35372); assay: Displacement of [3H]-Diprenorphine from recombinant full length human mu opioid receptor expressed in CHO-K1 cells assessed as residual binding level for radioligand at 10 uM incubated for 60 mins by scintillation counting analysis relative to control; assay type: cell-based
Sequence of Mu-type opioid receptor (Homo sapiens) (P35372 whole entry): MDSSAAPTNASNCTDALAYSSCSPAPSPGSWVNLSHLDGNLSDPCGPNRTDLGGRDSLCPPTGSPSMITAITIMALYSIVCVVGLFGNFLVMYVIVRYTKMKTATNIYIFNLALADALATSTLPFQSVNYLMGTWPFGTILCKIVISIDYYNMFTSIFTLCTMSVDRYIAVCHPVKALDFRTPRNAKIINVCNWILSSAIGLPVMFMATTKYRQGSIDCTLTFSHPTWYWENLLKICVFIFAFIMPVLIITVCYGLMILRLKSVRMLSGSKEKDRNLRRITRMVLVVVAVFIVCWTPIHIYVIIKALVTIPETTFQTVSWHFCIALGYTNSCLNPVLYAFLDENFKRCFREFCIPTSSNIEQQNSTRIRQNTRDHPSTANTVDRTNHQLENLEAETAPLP

[17] = Fraction unbound in rat plasma; assay type: ADME, cell-free
[18] = target: hERG (KCNH2) (Homo sapiens, UniProt Q12809); assay: Displacement of [3H]-Astemizole from human recombinant full length ERG channel expressed in HEK293 cells assessed as residual binding level for radioligand at 10 uM incubated for 60 mins by scintillation counting analysis relative to control; assay type: cell-based; conditions: probe [3H]-Astemizole, read-out: INH
[19] = Fraction unbound in human plasma; assay type: ADME, cell-free
[20] = target: Muscarinic acetylcholine receptor M4 (Rattus norvegicus) (UniProt P08485); assay: Positive allosteric modulation of rat M4 receptor relative to acetylcholine; conditions: filed as positive allosteric modulator
[21] = Positive allosteric modulation of cynomolgus monkey M4 receptor; design: species or system Macaca fascicularis
[22] = target: Alpha-1B adrenergic receptor (Homo sapiens) (UniProt P35368); assay: Displacement of [3H]-Prazosin from human adrenergic alpha 1B receptor expressed in Chem-1 cells assessed as residual binding level for radioligand at 10 uM incubated for 60 mins by radiometric scintillation analysis relative to control; assay type: cell-based
Sequence of Alpha-1B adrenergic receptor (Homo sapiens) (P35368 whole entry): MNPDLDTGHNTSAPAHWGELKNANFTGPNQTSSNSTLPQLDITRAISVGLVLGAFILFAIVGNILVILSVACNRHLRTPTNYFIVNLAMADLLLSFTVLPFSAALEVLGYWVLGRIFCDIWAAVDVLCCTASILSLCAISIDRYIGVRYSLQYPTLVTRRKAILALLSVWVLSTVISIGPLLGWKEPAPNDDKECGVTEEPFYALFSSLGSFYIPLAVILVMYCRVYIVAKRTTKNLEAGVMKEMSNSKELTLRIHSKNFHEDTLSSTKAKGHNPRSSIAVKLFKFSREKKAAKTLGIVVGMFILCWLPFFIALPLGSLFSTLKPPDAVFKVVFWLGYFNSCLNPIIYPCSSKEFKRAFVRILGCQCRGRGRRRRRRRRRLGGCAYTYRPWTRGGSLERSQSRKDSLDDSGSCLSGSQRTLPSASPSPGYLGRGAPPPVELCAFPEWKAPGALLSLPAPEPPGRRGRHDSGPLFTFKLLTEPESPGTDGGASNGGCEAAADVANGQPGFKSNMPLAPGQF

[23] = target: T2, Muscarinic acetylcholine receptor M4 (Homo sapiens, UniProt P08173); assay: Positive allosteric modulation of human M4 receptor/Gqi5 in presence of EC20 acetylcholine by calcium mobilization assay; assay type: functional
T2 sequence (P08173 whole entry): T1 sequence (whole entry)

[24] = system: Rattus norvegicus; assay: Reversal of amphetamine-induced hyperlocomotion in rat at 0.56 mg/kg, po relative to control; assay type: functional
[25] = target: Acetylcholine receptor subunit alpha (Homo sapiens) (UniProt P02708); assay: Displacement of [125I]-alpha-Bungarotoxin from full length nAChR alpha1 receptor in human RD cell membranes assessed as residual binding level for radioligand at 10 uM measured after 120 mins by radiometric scintillation analysis relative to control
Sequence of Acetylcholine receptor subunit alpha (Homo sapiens) (P02708 whole entry): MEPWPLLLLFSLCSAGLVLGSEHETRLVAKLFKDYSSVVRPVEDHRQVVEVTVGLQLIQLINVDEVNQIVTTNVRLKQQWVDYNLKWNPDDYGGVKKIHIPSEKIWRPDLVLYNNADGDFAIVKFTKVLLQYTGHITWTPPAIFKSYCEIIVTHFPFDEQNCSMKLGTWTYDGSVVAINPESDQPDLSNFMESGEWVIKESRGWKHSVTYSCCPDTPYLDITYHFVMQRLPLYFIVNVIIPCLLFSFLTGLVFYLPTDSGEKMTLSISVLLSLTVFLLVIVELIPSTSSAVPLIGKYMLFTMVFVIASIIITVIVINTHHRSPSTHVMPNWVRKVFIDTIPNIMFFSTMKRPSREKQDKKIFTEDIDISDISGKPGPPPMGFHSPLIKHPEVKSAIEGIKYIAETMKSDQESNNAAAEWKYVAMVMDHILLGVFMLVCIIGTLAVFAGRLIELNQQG

[26] = target: Muscarinic acetylcholine receptor M3 (Rattus norvegicus, UniProt P08483); assay: Positive allosteric modulation of rat M3 receptor
Sequence of Muscarinic acetylcholine receptor M3 (P08483 whole entry): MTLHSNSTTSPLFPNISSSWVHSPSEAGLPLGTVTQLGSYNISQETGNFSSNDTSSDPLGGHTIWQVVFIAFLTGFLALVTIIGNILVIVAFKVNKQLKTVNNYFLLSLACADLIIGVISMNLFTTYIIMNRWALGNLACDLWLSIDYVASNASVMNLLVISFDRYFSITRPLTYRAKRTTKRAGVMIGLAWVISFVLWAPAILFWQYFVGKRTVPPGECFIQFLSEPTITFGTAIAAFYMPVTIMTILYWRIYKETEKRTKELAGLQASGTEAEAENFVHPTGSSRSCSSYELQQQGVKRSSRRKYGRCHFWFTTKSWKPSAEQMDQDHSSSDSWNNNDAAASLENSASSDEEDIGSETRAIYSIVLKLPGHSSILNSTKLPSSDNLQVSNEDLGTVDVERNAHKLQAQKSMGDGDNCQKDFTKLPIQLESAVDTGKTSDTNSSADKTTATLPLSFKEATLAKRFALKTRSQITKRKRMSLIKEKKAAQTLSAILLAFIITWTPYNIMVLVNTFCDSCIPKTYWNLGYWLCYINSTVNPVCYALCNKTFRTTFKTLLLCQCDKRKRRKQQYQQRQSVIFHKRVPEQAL

[27] = Solubility of the compound in simulated gastric fluid; assay type: physicochemical
[28] = Volume of distribution at steady state in cynomolgus monkey; assay type: ADME, Macaca fascicularis; conditions: in vivo, read-out: Vdss

Compound `COc1nnc2sc(C(=O)NC3CN(c4ncc(C(F)(F)F)cn4)C3)c(N)c2c1C` has a Vd [1] of 0.57 L/kg, a CLH [2] of 2.52 mL/min/kg and an Activity [3] of over 50%. The Activity [4] was over 50%, the %max [5] was 71% and the Activity [6] was 54%. For the same compound, the Activity [7] was over 50%, the Activity [8] was over 50% and the minimal effective dose [9] was 0.56 mg/kg. It also gave an activity at 3 h, 10 µM [10] of over 50%, an Activity [11] of over 50% and an Activity [12] of over 50%. The Activity [13] was over 50%, the minimal effective dose [14] was 1 mg/kg and the Activity [15] was over 50%. It also gave an Activity [16] of over 50%, a fraction unbound [17] of 0.018 and an activity at 1 h, 10 µM [18] of under 25%. It also gave a fraction unbound [19] of 0.02, a %max [20] of 93% and an EC50 [21] of 68 nM. The Activity [22] was over 50%, the EC50 [23] was 90 nM and the Activity [24] was 44%. The Activity [25] was over 50%, the EC50 [26] was over 30000 nM and the solubility [27] was 15 µM (≈ 6.59 µg/mL). For the same compound, the Vd [28] was 0.74 L/kg.
